From ChEMBL document CHEMBL5223181, “Incorporation of an Isohexide Subunit Improves the Drug-like Properties of Bioactive Compounds” (ACS Med Chem Lett, 2023)
≈ marks a conversion by molar mass, not a printed value.

Columns and labels:
[1] = Dissociation constant, pKa of the compound at 10 mM incubated for 16 hrs with shaking by HPLC-UV analysis; type: physicochemical
[2] = Solubility of compound in PBS at pH 7.4 at 30 uM incubated for 90 mins by HPLC-UV analysis; type: physicochemical
[3] = Solubility in simulated gastric fluid at pH 1.2 at 30 uM incubated for 90 mins by HPLC-UV analysis; type: ADME
[4] = Solubility in simulated intestinal fluid at pH 6.8 at 30 uM incubated for 90 mins by HPLC-UV analysis; type: ADME
[5] = Octanol/water partition coefficient, logD of the compound at pH 7.4 at 10 mM incubated for 16 hrs with shaking by HPLC-UV analysis; type: physicochemical
[6] = Apparent permeability across apical to basolateral side in dog MDCK-MDR1 cells at 5 uM incubated for 60 mins by LC-MS/MS analysis; type: ADME, cell-based, Canis lupus familiaris
[7] = AUC (0-6 hrs) in C57BL/6 mouse plasma at 50 mg/kg,po and measured upto 24 hrs by LC-MS/MS analysis; type: ADME, organism-based; set-up: dose 50 mg/kg, time < 24 hrs, route po
[8] = Cmax in C57BL/6 mouse plasma at 50 mg/kg,po and measured upto 24 hrs by LC-MS/MS analysis; type: ADME, organism-based; set-up: dose 50 mg/kg, time < 24 hrs, route po
[9] = Tmax in C57BL/6 mouse plasma at 50 mg/kg,po and measured upto 24 hrs by LC-MS/MS analysis; type: ADME, organism-based
[10] = Half life in C57BL/6 mouse plasma at 50 mg/kg,po and measured upto 24 hrs by LC-MS/MS analysis; type: ADME, organism-based
[11] = Oral bioavailability in C57BL/6 mouse plasma at 50 mg/kg and measured upto 24 hrs by LC-MS/MS analysis; type: ADME, organism-based
[12] = Solubility of compound in PBS at pH 9.0 at 30 uM incubated for 90 mins by HPLC-UV analysis; type: physicochemical
[13] = Solubility in simulated gastric fluid at pH 1.2 at 30 uM incubated for 90 mins in presence of 0.5% SDS by HPLC-UV analysis; type: ADME
[14] = Solubility in simulated intestinal fluid at pH 6.8 at 30 uM incubated for 90 mins in presence of 0.5% SDS by HPLC-UV analysis; type: ADME
[15] = Terminal half life in C57BL/6 mouse at 61 mg/kg, po and measured upto 24 hrs by LC-MS/MS analysis; type: ADME, organism-based; conditions: in vivo, read-out: beta t1/2 (converted)
[16] = AUC (0-t) in C57BL/6 mouse at 61 mg/kg, po and measured for 4 to 10 hrs by LC-MS/MS analysis; type: ADME, organism-based; set-up: time lower 4 hrs, dose 61 mg/kg, time upper 10 hrs, route po; conditions: in vivo
[17] = AUC (0-infinity) in C57BL/6 mouse at 61 mg/kg, po and measured upto 24 hrs by LC-MS/MS analysis; type: ADME, organism-based; set-up: dose 61 mg/kg, time < 24 hrs, route po; conditions: in vivo
[18] = Cmax in C57BL/6 mouse at 61 mg/kg, po and measured upto 24 hrs by LC-MS/MS analysis; type: ADME, organism-based; set-up: dose 61 mg/kg, time < 24 hrs, route po; conditions: in vivo
[19] = target: Epidermal growth factor receptor (Homo sapiens, UniProt P00533); test: Inhibition of human EGFR
Chain of Epidermal growth factor receptor (P00533 whole entry): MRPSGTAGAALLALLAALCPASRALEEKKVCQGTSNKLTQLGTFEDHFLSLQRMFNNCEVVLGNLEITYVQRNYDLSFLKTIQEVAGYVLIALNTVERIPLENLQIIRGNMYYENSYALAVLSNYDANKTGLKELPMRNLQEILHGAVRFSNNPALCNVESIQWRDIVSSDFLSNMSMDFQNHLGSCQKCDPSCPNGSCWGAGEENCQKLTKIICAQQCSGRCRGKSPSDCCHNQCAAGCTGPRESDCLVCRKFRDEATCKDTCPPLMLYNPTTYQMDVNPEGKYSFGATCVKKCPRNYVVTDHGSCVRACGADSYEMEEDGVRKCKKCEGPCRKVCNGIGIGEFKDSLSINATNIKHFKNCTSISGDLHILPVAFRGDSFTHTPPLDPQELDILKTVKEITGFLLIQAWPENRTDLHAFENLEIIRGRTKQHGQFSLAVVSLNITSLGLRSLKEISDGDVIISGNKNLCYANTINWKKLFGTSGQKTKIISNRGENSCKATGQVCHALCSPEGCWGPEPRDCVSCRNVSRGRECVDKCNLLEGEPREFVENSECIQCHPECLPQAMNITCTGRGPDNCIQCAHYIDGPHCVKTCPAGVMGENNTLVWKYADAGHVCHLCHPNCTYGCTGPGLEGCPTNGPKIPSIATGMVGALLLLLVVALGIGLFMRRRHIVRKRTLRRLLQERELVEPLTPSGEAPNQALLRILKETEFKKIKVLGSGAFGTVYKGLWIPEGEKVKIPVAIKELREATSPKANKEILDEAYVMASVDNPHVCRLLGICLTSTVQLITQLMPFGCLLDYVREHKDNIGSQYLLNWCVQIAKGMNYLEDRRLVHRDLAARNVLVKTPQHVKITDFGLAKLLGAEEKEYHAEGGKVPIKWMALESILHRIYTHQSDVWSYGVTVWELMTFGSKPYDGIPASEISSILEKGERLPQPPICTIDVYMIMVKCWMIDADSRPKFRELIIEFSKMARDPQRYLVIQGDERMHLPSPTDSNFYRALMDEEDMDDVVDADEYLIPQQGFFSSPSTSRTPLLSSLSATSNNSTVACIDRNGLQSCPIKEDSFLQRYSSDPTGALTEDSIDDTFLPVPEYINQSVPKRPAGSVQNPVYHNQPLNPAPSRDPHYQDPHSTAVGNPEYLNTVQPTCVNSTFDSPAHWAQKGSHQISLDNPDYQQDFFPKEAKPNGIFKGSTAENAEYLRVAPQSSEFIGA

[20] = Apparent permeability of compound at 20 mM and measured after 16 hrs by PAMPA assay; type: ADME
[21] = Terminal half life in C57BL/6 mouse at 80 mg/kg, po and measured upto 24 hrs by LC-MS/MS analysis; type: ADME, organism-based; conditions: in vivo, read-out: beta t1/2 (converted)
[22] = AUC (0-t) in C57BL/6 mouse at 80 mg/kg, po and measured for 4 to 10 hrs by LC-MS/MS analysis; type: ADME, organism-based; set-up: time upper 10 hrs, dose 80 mg/kg, time lower 4 hrs, route po; conditions: in vivo
[23] = AUC (0-infinity) in C57BL/6 mouse at 80 mg/kg, po and measured upto 24 hrs by LC-MS/MS analysis; type: ADME, organism-based; set-up: time < 24 hrs, dose 80 mg/kg, route po; conditions: in vivo
[24] = Cmax in C57BL/6 mouse at 80 mg/kg, po and measured upto 24 hrs by LC-MS/MS analysis; type: ADME, organism-based; set-up: time < 24 hrs, dose 80 mg/kg, route po; conditions: in vivo
[25] = Prodrug conversion in C57BL/6 mouse plasma assessed as AUC (0 to 6 hrs) of (S)-2-(2-chloro-6-methylbenzamido)-3-(4-(1,3,6-trimethyl-2,4-dioxo-1,2,3,4-tetrahydropyrimidin-5-yl)phenyl)propanoic acid metabolite at 63.5 mg/kg,po and measured upto 24 hrs by LC-MS/MS analysis; type: ADME, organism-based; set-up: time < 24 hrs, dose 63.5 mg/kg, route po; conditions: in vivo
[26] = Prodrug conversion in C57BL/6 mouse plasma assessed as Cmax of (S)-2-(2-chloro-6-methylbenzamido)-3-(4-(1,3,6-trimethyl-2,4-dioxo-1,2,3,4-tetrahydropyrimidin-5-yl)phenyl)propanoic acid metabolite at 63.5 mg/kg,po and measured upto 24 hrs by LC-MS/MS analysis; type: ADME, organism-based; set-up: dose 63.5 mg/kg, time < 24 hrs, route po; conditions: in vivo
[27] = Prodrug conversion in C57BL/6 mouse plasma assessed as Tmax of (S)-2-(2-chloro-6-methylbenzamido)-3-(4-(1,3,6-trimethyl-2,4-dioxo-1,2,3,4-tetrahydropyrimidin-5-yl)phenyl)propanoic acid metabolite at 63.5 mg/kg,po and measured upto 24 hrs by LC-MS/MS analysis; type: ADME, organism-based; conditions: in vivo
[28] = Prodrug conversion in C57BL/6 mouse plasma assessed as half life of (S)-2-(2-chloro-6-methylbenzamido)-3-(4-(1,3,6-trimethyl-2,4-dioxo-1,2,3,4-tetrahydropyrimidin-5-yl)phenyl)propanoic acid metabolite at 63.5 mg/kg,po and measured upto 24 hrs by LC-MS/MS analysis; type: ADME, organism-based; conditions: in vivo
[29] = Oral bioavailability in C57BL/6 mouse plasma at 63.5 mg/kg and measured upto 24 hrs by LC-MS/MS analysis; type: ADME, organism-based
[30] = Prodrug conversion in C57BL/6 mouse plasma assessed as(S)-2-(2-chloro-6-methylbenzamido)-3-(4-(1,3,6-trimethyl-2,4-dioxo-1,2,3,4-tetrahydropyrimidin-5-yl)phenyl)propanoic acid metabolite level at 100 mg/kg, po and measured after 3 hrs LC-MS/MS analysis; type: ADME, organism-based; conditions: in vivo
[31] = Prodrug conversion in C57BL/6 mouse plasma assessed as (S)-2-(2-chloro-6-methylbenzamido)-3-(4-(1,3,6-trimethyl-2,4-dioxo-1,2,3,4-tetrahydropyrimidin-5-yl)phenyl)propanoic acid metabolite level at 100 mg/kg, po and measured after 6 hrs LC-MS/MS analysis; type: ADME, organism-based; conditions: in vivo
[32] = Prodrug conversion in C57BL/6 mouse colon assessed as (S)-2-(2-chloro-6-methylbenzamido)-3-(4-(1,3,6-trimethyl-2,4-dioxo-1,2,3,4-tetrahydropyrimidin-5-yl)phenyl)propanoic acid metabolite level at 100 mg/kg, po and measured after 3 hrs LC-MS/MS analysis; type: ADME, organism-based; conditions: in vivo
[33] = Prodrug conversion in C57BL/6 mouse colon assessed as (S)-2-(2-chloro-6-methylbenzamido)-3-(4-(1,3,6-trimethyl-2,4-dioxo-1,2,3,4-tetrahydropyrimidin-5-yl)phenyl)propanoic acid metabolite level at 100 mg/kg, po and measured after 6 hrs LC-MS/MS analysis; type: ADME, organism-based; conditions: in vivo

pKa at 16 h, 10000 µM [1]	solubility at 1.5 h, 30 µM [2] [µg/mL]	solubility at 1.5 h, 30 µM [3] [µg/mL]	solubility at 1.5 h, 30 µM [4] [µg/mL]	logD at 16 h, 10000 µM [5]	Papp A→B at 1 h, 5 µM [6] [×10⁻⁶ cm/s]	solubility at 1.5 h, 30 µM [12] [µg/mL]	solubility at 1.5 h, 30 µM [13] [µg/mL]	solubility at 1.5 h, 30 µM [14] [µg/mL]	half-life [15] [h]	Papp at 16 h, 20000 µM [20] [×10⁻⁶ cm/s]	SMILES	also measured
3.4	95.4 (≈ 203 µM)	94.7 (≈ 202 µM)	91.9 (≈ 196 µM)	-1.1	1.3						Cc1cccc(Cl)c1C(=O)N[C@@H](Cc1ccc(-c2c(C)n(C)c(=O)n(C)c2=O)cc1)C(=O)O	AUC(0-t) at 24 h [7]: 616 ng·h/mL; Cmax [8]: 425 ng/mL; Tmax [9]: 1 h; half-life [10]: 0.67 h; bioavailability [11]: < 1%
4.51	1.3 (≈ 3.9 µM)	49.4 (≈ 148 µM)	51.7 (≈ 155 µM)			1.53 (≈ 4.58 µM)	23.6	63.9	1.9		COc1cc2ncnc(Nc3ccc(F)c(Cl)c3)c2cc1OC	AUC(0-t) [16]: 25500 ng·h/mL; AUC(0-inf) [17]: 26300 ng·h/mL; Cmax [18]: 7440 ng/mL
5	19.8 (≈ 43.1 µM)	87.9 (≈ 191 µM)	65.4 (≈ 142 µM)			45.4 (≈ 98.7 µM)	56	80.8	1.19	7.45	COc1cc2ncnc(Nc3ccc(O[C@H]4CO[C@H]5[C@@H]4OC[C@@H]5O)c(Cl)c3)c2cc1OC	IC50 [19]: 5.3 nM; half-life [21]: 1.19 h; AUC(0-t) [22]: 44500 ng·h/mL; AUC(0-inf) [23]: 44500 ng·h/mL; Cmax [24]: 30100 ng/mL
7.9	107 (≈ 179 µM)	126 (≈ 210 µM)	99.6 (≈ 167 µM)	1.2	2.5					1.68	Cc1cccc(Cl)c1C(=O)N[C@@H](Cc1ccc(-c2c(C)n(C)c(=O)n(C)c2=O)cc1)C(=O)O[C@H]1CO[C@H]2[C@@H]1OC[C@@H]2O	AUC [25]: 2100 ng·h/mL; Cmax [26]: 3193 ng/mL; Tmax [27]: 0.25 h; t1/2 [28]: 1.63 h; bioavailability [29]: 12%; Drug metabolism [30]: 500 ng/mL; Drug metabolism [31]: 200 ng/mL; Drug metabolism [32]: 200000 ng/g; Drug metabolism [33]: 100000 ng/g
